Measured values from patent US4956355A, “Agents for the arrest and therapy of retroviral infections” (Colthurst Limited, priority 1987, dated 1990).

How the values were obtained:
[1] = tested on: HIV in VB T lymphoma cell line; assay: Inhibition of HIV mediated cytopathic effects (multinucleated giant/syncytial cell formation) in acutely infected VB tumor cell line; type: cell-based
Description: (§1) 1. […] All three viral strains were grown in the Tissue Culture Laboratory of the AIDS Activity Division of San Francisco General Hospital where titers of […] infectious units per ml were routinely achieved.
(§2) 2. Source of cells: The VB cell line used in Example 1 is a T lymphoma cell line that is highly susceptible to infection with HIV, and expresses high levels of cell surface CD4 molecules. This cell line forms syncytia within two days after infection with all strains of HIV tested to date. […] This is used to quantitate infection in the absence of syncytial formation, infection being quantitated by immunofluorescence assays. The HXB/H9 cell line (Example 6) is an H9 cell population that chronically produces the HTLV-IIIB strain of HIV and is utilised in experiments testing antiviral effects on chronically infected cell lines. Human macrophages were prepared from peripheral blood mononuclear cells either obtained from the blood bank as a buffy coat, or as a leukophoresis preparation. Crowe et al. supra have devised an assay system that allows quantitation of HIV infection, and inhibition of infection using immunocytofluorographic analysis. In order to quantitate HIV infection in macrophages, they grow macrophages in Teflon (Trade Mark) culture vessels which maintain macrophages in suspension in vitro culture for up to six months. Cell surface and cytoplasmic immunofluorescence staining is then performed to quantitate antigens in macrophages by flow cytometry.
5. Inhibition of acute infection: Several assays were utilized to test for inhibition of acute infection; these included:
(a) Inhibition of multinucleated giant cell formation in acutely infected VB cells infected at a multiplicity of infection of 1, and scored two days after infection in the presence or absence of varying concentrations of drug, for the formation of multinucleated giant cells. (free virus is washed out after a one hour incubation pretreatment at room temperature). […] Supernatants were also isolated and the level of HIV p24 antigen determined. Infectious virus was measured in treated cultures by performing a syncytial assay as described above.
Compounds A and B were tested for inhibition of T lymphoma cell cytopathic effect at various drug concentrations after acute infection with HIV for 48 hours. […] It is possible that the diminished effects noted in later experiments could have been secondary to drug stability problems.

HIV in human macrophages = assay: Inhibition of cytoplasmic HIV p24 antigen in HIV-infected macrophages; type: cell-based; conditions: FIG. 4
Description: as §1, §2
3. Flow cytometry: An Ortho Cytofluorgraf II-S (Trade Mark) that has a biohazard containment flow cell was used for analysis of HIV infected samples. HIV p24 antigens were detected utilizing a mouse monoclonal anti-p24 (du Pont), and mouse antibodies were identified utilizing an FITC conjugated goat anti-mouse IgG. […]
The cells from the experiment described in Example 3 were analysed, and the cytoplasm was analysed for the presence of HIV p24 to directly test whether HIV p24 antigen production was inhibited within those infected cells. […]

HIV in HXB/H9 cell line = assay: Antiviral testing of chronically HIV infected cell line HXB; type: cell-based; conditions: other than killing with compound B at 10^-4 molar
Description: as §1
as §2, with “Human macrophages were prepared from peripheral blood mononuclear cells either obtained from the blood bank as a buffy coat, or as a leukophoresis preparation.” left out, “cytometry. […]” for “cytometry.”

HIV = assay: Use of dehydroepiandrosterone in AIDS therapy, twelve patients; type: in vivo, human patients
Description: (§3) Twelve patients all of whom were sero-positive for HIV and had been diagnosed as suffering from AIDS were treated with DHEA for up to six months. The DHEA was administered in the form of hard gelatin capsules containing 100 mg of DHEA and at a rate of 100 mg to 600 mg per day. The vast majority being on 500 mg per day in divided doses. The patients were all homosexual or bisexual males with an average age of 34.5 years and an average weight of 69.6 kg.
Past and present HIV clinical manifestations included: unexplained diarrhoea, Kaposis Sarcoma, Herpes Zoster, Oral Candidiasis, Lymphadenopathy, Oral Hairy Leucoplakia, involuntary weight loss, dermal mycoses and Stapholococcal skin infections.
All of the patients were in an advanced stage of AIDS at the commencement of the trial and normally further deterioration of their condition, or even death, would have been expected over the six month period of the trial. […] Patient 7 gained 8 kg over five months.

[2] = Safety of dehydroepiandrosterone in subjects; type: in vivo, human
Description: as §3

[3] = tested on: human peripheral blood mononuclear (PBM) cells infected with Epstein-Barr virus; conditions: cited from earlier work
NADH oxidase = conditions: cited from earlier work
mitotic activity = conditions: cited from earlier work
[4] = tested on: permeability of membranes; conditions: cited from earlier work
complement activation = conditions: cited from earlier work
[5] = murine model of SLE; cited from earlier work
[6] = in vivo; cited from earlier work

## C[C@]12CC[C@H](O)CC1=CC[C@@H]1[C@@H]2CC[C@]2(C)C(=O)CC[C@@H]12 [A, dehydroepiandrosterone]
[1]; acute infection
  antiviral effects in comparison with AZT, T lymphoma cells: inferior
[1]; acute infection, conclusions
  antiviral effect in acute infection studies of T lymphoma cells: mild antiviral effect
[1]; compounds diluted in DMSO, possibly secondary to drug stability problems
  inhibition of cytopathic effect in two subsequent experiments: less striking effect
HIV in human macrophages; 10^-4 molar, three donors
  HIV p24 cytoplasmic antigen production: substantially inhibited
HIV in human macrophages; dilutions even at 10^-6 molar
  inhibiting HIV p24 antigen production within infected macrophages: active
HIV in HXB/H9 cell line
  inhibition of HIV production of cytopathic effects in chronically infected lymphoma cell line: no specific inhibition
HIV; of twelve patients, up to six months
  patients gaining weight: four
HIV; oral, 100 mg to 600 mg per day, up to six months, twelve advanced AIDS patients
  deterioration in condition: no serious deterioration in condition
HIV; over five months
  weight gain of Patient 7: 8 kg
[2]; general statement
  toxicity in treatment of patients infected with HIV: virtual absence of toxicity
[2]; twelve subjects, daily doses of up to 600 mg for up to six months
  adverse physical, biochemical or hematological effects: complete lack of adverse physical, biochemical or hematological effects
[3]
  concentrations reducing colony forming ability: 10 to 100 µM
NADH oxidase
  effect on NADH oxidase: inhibitory effect
Mitotic activity
  effect on mitotic activity: inhibitory effect
[4]
  effect on permeability of membranes: inhibitory effect
Complement activation
  complement activation: inhibits complement activation
[5]
  autoantibody formation: prevents autoantibody formation
[6]
  metabolic disorders and liver cirrhosis: suppress some of the metabolic disorders and liver cirrhosis
  pain in ischemic heart disease, especially angina pectoris: reduces pain
